Test results taken from ChEMBL document CHEMBL3045204, “Synthesis and structureantibacterial activity relationship studies of 4-substituted phenyl-4,5-dihydrobenzo[f][1,4]oxazepin-3(2H)-thiones” (2011).
Values after ≈ are worked out from the molar mass of the structure shown.

Experiments:
Format in all cases: functional
[1] = system: Staphylococcus aureus; assay: Antibacterial activity Staphylococcus aureus […] after 16 to 20 hr by broth microdilution method
[2] = system: Candida albicans; assay: Antifungal activity Candida albicans ATCC 90028 after 48 hr by broth microdilution method; settings: ATCC 90028, 48 h
[3] = system: Escherichia coli; assay: Antibacterial activity Escherichia coli ATCC 25922 after 16 to 20 hr by broth microdilution method
[4] = system: Enterococcus faecalis; assay: Antibacterial activity Enterococcus faecalis ATCC 29212 after 16 to 20 hr by broth microdilution method
[5] = system: Pseudomonas aeruginosa; assay: Antibacterial activity Pseudomonas aeruginosa ATCC 27853 after 16 to 20 hr by broth microdilution method

**Q.** Which results are given for COc1ccc(N2Cc3ccccc3OCC2=S)cc1?
**A.** MIC [1]: 400 µg/mL (≈ 1400 µM); MIC [2]: 800 µg/mL (≈ 2800 µM); MIC [3]: 200 µg/mL (≈ 701 µM); MIC [4]: 50 µg/mL (≈ 175 µM); MIC [5]: 100 µg/mL (≈ 350 µM)

**Q.** Which results are given for Cc1ccc(N2Cc3ccccc3OCC2=S)cc1?
**A.** MIC [1]: 200 µg/mL (≈ 742 µM); MIC [2]: 200 µg/mL (≈ 742 µM); MIC [3]: 200 µg/mL (≈ 742 µM); MIC [4]: 25 µg/mL (≈ 92.8 µM); MIC [5]: 25 µg/mL (≈ 92.8 µM)

**Q.** Which MIC [1] does the source give for Cc1cccc(N2Cc3ccccc3OCC2=S)c1 here?
**A.** The MIC was 800 µg/mL (≈ 2970 µM).

**Q.** And the MIC [2]?
**A.** The MIC was 800 µg/mL (≈ 2970 µM).

**Q.** And the MIC [3]?
**A.** Its MIC is 400 µg/mL (≈ 1480 µM).

**Q.** What about the MIC [4] of the same compound?
**A.** The MIC was 50 µg/mL (≈ 186 µM).

**Q.** What about the MIC [5] of the same compound?
**A.** The MIC was 100 µg/mL (≈ 371 µM).

**Q.** Which MIC [1] does the source give for S=C1COc2ccccc2CN1c1ccccc1 here?
**A.** Its MIC is 800 µg/mL (≈ 3130 µM).

**Q.** And the MIC [2]?
**A.** Its MIC is 800 µg/mL (≈ 3130 µM).

**Q.** What about the MIC [3] of the same compound?
**A.** Its MIC is 200 µg/mL (≈ 783 µM).

**Q.** What about the MIC [4] of the same compound?
**A.** The MIC was 100 µg/mL (≈ 392 µM).

**Q.** What about the MIC [5] of the same compound?
**A.** Its MIC is 100 µg/mL (≈ 392 µM).

**Q.** Fc1ccc(N2Cc3ccccc3OCC2=S)cc1 was tested. Which MIC [1] did it give?
**A.** Its MIC is 800 µg/mL (≈ 2930 µM).

**Q.** What about the MIC [2] of the same compound?
**A.** The MIC was 400 µg/mL (≈ 1460 µM).

**Q.** And the MIC [3]?
**A.** The MIC was 100 µg/mL (≈ 366 µM).

**Q.** And the MIC [4]?
**A.** The MIC was 50 µg/mL (≈ 183 µM).

**Q.** What about the MIC [5] of the same compound?
**A.** Its MIC is 100 µg/mL (≈ 366 µM).

**Q.** For COc1cccc(N2Cc3ccccc3OCC2=S)c1, which MIC [1] is on record?
**A.** Its MIC is 200 µg/mL (≈ 701 µM).

**Q.** And the MIC [2]?
**A.** The MIC was 100 µg/mL (≈ 350 µM).

**Q.** And the MIC [3]?
**A.** The MIC was 100 µg/mL (≈ 350 µM).

**Q.** And the MIC [4]?
**A.** Its MIC is 25 µg/mL (≈ 87.6 µM).

**Q.** What about the MIC [5] of the same compound?
**A.** The MIC was 50 µg/mL (≈ 175 µM).

**Q.** For S=C1COc2ccccc2CN1c1ccc(I)cc1, which MIC [1] is on record?
**A.** The MIC was 400 µg/mL (≈ 1050 µM).

**Q.** What about the MIC [2] of the same compound?
**A.** Its MIC is 800 µg/mL (≈ 2100 µM).

**Q.** And the MIC [3]?
**A.** Its MIC is 100 µg/mL (≈ 262 µM).

**Q.** What about the MIC [4] of the same compound?
**A.** Its MIC is 50 µg/mL (≈ 131 µM).

**Q.** What about the MIC [5] of the same compound?
**A.** The MIC was 50 µg/mL (≈ 131 µM).

**Q.** With S=C1COc2ccccc2CN1c1ccc(Cl)cc1 as the compound, how does the MIC [1] read?
**A.** The MIC was 400 µg/mL (≈ 1380 µM).

**Q.** What about the MIC [2] of the same compound?
**A.** The MIC was 800 µg/mL (≈ 2760 µM).

**Q.** And the MIC [3]?
**A.** The MIC was 400 µg/mL (≈ 1380 µM).

**Q.** And the MIC [4]?
**A.** The MIC was 25 µg/mL (≈ 86.3 µM).

**Q.** And the MIC [5]?
**A.** Its MIC is 100 µg/mL (≈ 345 µM).

**Q.** For S=C1COc2ccccc2CN1c1ccc(Br)cc1, which MIC [1] is on record?
**A.** The MIC was 100 µg/mL (≈ 299 µM).

**Q.** And the MIC [2]?
**A.** Its MIC is 100 µg/mL (≈ 299 µM).

**Q.** And the MIC [3]?
**A.** The MIC was 100 µg/mL (≈ 299 µM).

**Q.** And the MIC [4]?
**A.** Its MIC is 12.5 µg/mL (≈ 37.4 µM).

**Q.** What about the MIC [5] of the same compound?
**A.** The MIC was 25 µg/mL (≈ 74.8 µM).

**Q.** How did the MIC [1] turn out when S=C1COc2ccccc2CN1c1cccc(Cl)c1 was run?
**A.** Its MIC is 400 µg/mL (≈ 1380 µM).

**Q.** And the MIC [2]?
**A.** Its MIC is 800 µg/mL (≈ 2760 µM).

**Q.** And the MIC [3]?
**A.** Its MIC is 200 µg/mL (≈ 690 µM).

**Q.** What about the MIC [4] of the same compound?
**A.** The MIC was 100 µg/mL (≈ 345 µM).

**Q.** What about the MIC [5] of the same compound?
**A.** The MIC was 200 µg/mL (≈ 690 µM).

**Q.** With FC(F)(F)c1cccc(N2Cc3ccccc3OCC2=S)c1 as the compound, how does the MIC [1] read?
**A.** Its MIC is 400 µg/mL (≈ 1240 µM).

**Q.** And the MIC [2]?
**A.** The MIC was 400 µg/mL (≈ 1240 µM).

**Q.** What about the MIC [3] of the same compound?
**A.** The MIC was 100 µg/mL (≈ 309 µM).

**Q.** What about the MIC [4] of the same compound?
**A.** Its MIC is 25 µg/mL (≈ 77.3 µM).

**Q.** What about the MIC [5] of the same compound?
**A.** The MIC was 50 µg/mL (≈ 155 µM).

**Q.** How did the MIC [1] turn out when O=[N+]([O-])c1cccc(N2Cc3ccccc3OCC2=S)c1 was run?
**A.** Its MIC is 200 µg/mL (≈ 666 µM).

**Q.** What about the MIC [2] of the same compound?
**A.** Its MIC is 200 µg/mL (≈ 666 µM).

**Q.** What about the MIC [3] of the same compound?
**A.** Its MIC is 100 µg/mL (≈ 333 µM).

**Q.** What about the MIC [4] of the same compound?
**A.** Its MIC is 25 µg/mL (≈ 83.2 µM).

**Q.** What about the MIC [5] of the same compound?
**A.** Its MIC is 25 µg/mL (≈ 83.2 µM).

**Q.** Which results are given for O=[N+]([O-])c1ccc(N2Cc3ccccc3OCC2=S)cc1?
**A.** MIC [1]: > 1600 µg/mL; MIC [2]: 800 µg/mL (≈ 2660 µM); MIC [3]: 200 µg/mL (≈ 666 µM); MIC [4]: 50 µg/mL (≈ 166 µM); MIC [5]: 50 µg/mL (≈ 166 µM)

**Q.** CN(C)c1ccc(N2Cc3ccccc3OCC2=S)cc1 was tested. Which MIC [1] did it give?
**A.** The MIC was 400 µg/mL (≈ 1340 µM).

**Q.** What about the MIC [2] of the same compound?
**A.** The MIC was 800 µg/mL (≈ 2680 µM).

**Q.** What about the MIC [3] of the same compound?
**A.** Its MIC is 200 µg/mL (≈ 670 µM).

**Q.** And the MIC [4]?
**A.** Its MIC is 25 µg/mL (≈ 83.8 µM).

**Q.** And the MIC [5]?
**A.** Its MIC is 100 µg/mL (≈ 335 µM).

**Q.** Which MIC [1] does the source give for CC1(C)S[C@@H]2[C@H](NC(=O)[C@H](N)c3ccccc3)C(=O)N2[C@H]1C(=O)O [AMPICILLIN] here?
**A.** The MIC was 0.78 µg/mL (≈ 2.23 µM).

**Q.** And the MIC [3]?
**A.** Its MIC is 6.25 µg/mL (≈ 17.9 µM).

**Q.** And the MIC [4]?
**A.** The MIC was 0.78 µg/mL (≈ 2.23 µM).

**Q.** With O=C(O)c1cn(C2CC2)c2cc(N3CCNCC3)c(F)cc2c1=O [CIPROFLOXACIN] as the compound, how does the MIC [1] read?
**A.** The MIC was 0.25 µg/mL (≈ 0.754 µM).

**Q.** What about the MIC [3] of the same compound?
**A.** The MIC was 0.04 µg/mL (≈ 0.121 µM).

**Q.** And the MIC [4]?
**A.** Its MIC is 0.25 µg/mL (≈ 0.754 µM).

**Q.** Which MIC [2] does the source give for OC(Cn1cncn1)(Cn1cncn1)c1ccc(F)cc1F [FLUCONAZOLE] here?
**A.** Its MIC is 0.25 µg/mL (≈ 0.816 µM).
